How the values were obtained:
[1] = system: morphine/heroin seeking behaviour; test: Extinction and reinstatement of morphine/heroin seeking, mouse intravenous operant self-administration; type: in vivo, C57B16/J mice; conditions: L-histidine 1 g/kg or 2 g/kg; mice
Protocol: L-Histidine solution: L-Histidine (Sigma, H-8000) at a 155.15 g/mol concentration in 0.34 M phosphoric acid is prepared as follows. 1.5 g L-histidine are dissolved in 12 ml of 0.34 M phosphoric acid to obtain a 0.8 M solution of L-histidine at approximately pH 6. pH is verified, and 0.1 g of NaCl added to a final concentration of 0.9%. Finally, the L-histidine solution is sterilized by filtration.
Animals: Male C57B16/J mice (Charles River, France) are housed individually in controlled laboratory conditions with the temperature maintained at 21±1° C., humidity at 55±10%, and light reversal cycle (light on at 20.00 h, light off at 08.00 h). Mice are tested during the dark phase of a light reversal cycle. Behavioural tests and animal care are conducted in accordance with the standard ethical guidelines (National Institutes of Health 1995; European Communities Directive 86/609 EEC) and the protocols are approved by the local ethical committee (CEEA-PRBB).
Apparatus: The self-administration experiments are conducted in mouse operant chambers (Model ENV-307A-CT, Medical Associates, Georgia, VT, USA). The experimental chambers are equipped with a house light, ventilator fan, drug infusion pump, liquid swivel with counterbalanced arm, and two manipulanda with cue lights that are located on either side of a food dipper. The manipulanda are holes (1.2 cm diameter).
The chambers are housed in sound- and light-attenuated boxes equipped with fans to provide ventilation and white noise. […]
The catheter tubing is inserted 1.3 cm into the right jugular vein and anchored with suture. […] The patency of intravenous catheters is evaluated periodically (approximately every 6 days). Patency is also evaluated whenever drug self-administration behavior appears to deviate dramatically from that observed previously. […]
L-Histidine dosage: The first L-histidine dose is 1 g/kg. […] Dosage for other H3 histaminergic agonists or H3 histaminergic agonist precursors is determined considering the pharmacokinetic and toxicological characteristics of the compound. […]

[2] = system: alcohol seeking behavior; test: Relapse into seeking alcohol self-administration (reinstatement by alcohol or foot-shock stress); type: in vivo, Sprague-Dawley rat; conditions: L-histidine 1 g/kg orally, rats
Protocol: Fourteen male Sprague-Dawley rats obtained from Charles-River weighing 200 g at the beginning of the protocol are used. Rats are water-deprived for the few hours before the first overnight session. Rats are placed in an operant chamber (Panlab) with two levers. Pressing the “active” lever provides access to 0.1 ml of a 20% sucrose solution under a continuous reinforcement program. A light above the active lever signals availability of the solution in a drinking chamber for 20 seconds.
The following daily sessions take 60 minutes and water is provided ad libitum. […] Afterwards, the program is increased to Fixed Ratio 2 (FR2), i.e., two lever presses give access to one reinforcement. Self-administration is maintained next to FR3 and finally to FR5.
Before extinction sessions, saline is administered orally (5 ml/kg) to all rats. For extinction training, rats are placed in the same operant chambers but no alcohol access or cue light is contingent on lever press. Once rats decrease lever press to less than 10 presses per hour they are considered ready for reinstatement (relapse) procedures.
Before the reinstatement sessions, saline 5 ml/kg or L-histidine 1 g/kg (dissolved in saline and adjusted to pH 5) are administered orally to the rats. […]

In the case of `N[C@@H](Cc1c[nH]cn1)C(=O)O` [L-histidine], the “cue-induced reinstatement of morphine/heroine seeking” value [1] is reported as “decreases cue-induced reinstatement”, the “number of sessions required to achieve extinction criteria (morphine/heroin)” value [1] is reported as “shortens the number of sessions” and the “responding during the first extinction session (morphine/heroin)” value [1] is reported as “decreases or delays responding”. The “reinstatement of alcohol seeking behavior caused by stress” value ([2]; foot-shock stress) was “decreases the reinstatement” and the “reinstatement of alcohol seeking behavior caused by exposure to ethanol” value [2] was “decreases the reinstatement”.

Source: patent publication US20110130425A1, “Use of H3 Histaminergic Agonists for the Treatment of Addiction to Drugs of Abuse” (priority 2009, published 2011)
